Tests used:
[1] = test system: NIH/3T3 mouse embryonic fibroblast cells; assay: XTT cytotoxicity assay on NIH/3T3 cells; conditions: Mus musculus, NIH3T3, 24 h
Method: XTT is reduced to soluble formazan by this enzyme and formazan is quantified and directly proportional to the number of viable cells. […] NIH/3T3 cells were seeded at 1 × 10^4 cells into each well of 96-well plates. […] The XTT assay (Xenometrix, Allschwil, Switzerland) was performed according to the manufacturer’s instructions, after 24 h incubation with the compounds. The absorbance was determined after 2 h incubation at 480 nm with a reference wavelength of 680 nm using a microplate reader (BioTek, USA). […] The stock solutions of the compounds were prepared in DMSO and further dilutions were made with fresh culture medium. The final DMSO concentration was under 0.1%. Rosiglitazone and Pioglitazone were used as positive controls. All data were obtained from 3 independent experiments in quadruplicates.

[2] = test system: STZ-NA-induced diabetic rats; assay: Antidiabetic activity in STZ-NA-induced type 2 diabetic rats
Method: The test dose was fixed based on the predicted LD50 value. […] Diabetic rats were orally treated with the test compounds at a dose of 36 mg/kg body weight for a period of 15 days. Fasting blood glucose of control, diabetic-untreated and diabetic-treated rats were tested on Days 1, 3, 7 and 15 of the treatment period (Fig. 6A).
Male Wistar strain rats weighing about 160–200 g were used for animal studies. […] Rats were provided with rodent diet and water ad libitum. […] The animals were allowed to drink 5% glucose solution overnight to prevent STZ-NA-induced hypoglycemia[82],[83]. The rats were considered as diabetic if their blood glucose levels were above 250 mg/dL on the 3rd day after STZ-NA injection. The rats were divided into four groups of six animals in each group. Control animals received normal saline (Group I). Diabetic rats received STZ-NA injection (Group II). […] The blood glucose level of each group was checked at 1, 3, 7 and 15 Day by withdrawing blood from tail vein of the animal using glucose meter (ACCu-Chek active, Roche, Diagnostics USA).
After pharmacological screening for antidiabetic activity, the animals were subjected to overnight fasting and blood was collected from retro-orbital region under light anaesthesia for performing various biochemical experiments. All the biochemical experiments were performed using commercially available kits. Total Hb was estimated by cyanomethaemoglobin method, while HbA1c was estimated from whole blood using commercially available kits following the manufacturer guidelines (ERBA Diagnostics Inc, Accurex Biomedical Pvt. Ltd., Coral clinical systems, India). TG concentration was determined by GPO-POD enzymatic-colorimetric method. TC level was measured by the end point, CHOD-POD colorimetric methods. HDL-C was assayed by the method reported earlier. VLDL-C and LDL-C in plasma were calculated by the Friedewald formula: VLDL-C = TG/5; LDL-C = TC-(HDL-C + VLDL-C)[88]. Levels of serum urea, uric acid, and creatinine were measured using commercially available kits[89].
Rats were sacrificed under light anesthesia using diethylether at the end of the pharmacological and biochemical studies. […] Then, the tissue was sliced out into sections of 5 µm thickness by a rotator microtome and stained with hematoxylin-eosin. Obtained sections were examined by a Leica DME microscope, and representative photomicrographs were taken by a 7.1 megapixel Canon Power Shot S70 digital camera.

human PPARγ (hPPARγ) = target: T1, human PPARγ (hPPARγ) (Homo sapiens, UniProt P37231); parameters: method as in earlier work; conditions: PPARγ activity of metaglidasen; cited from earlier work
T1 construct: expressed in transfected cells; host or cells: HepG2 (human hepatoblastoma), transient calcium phosphate transfection
T1 sequence (P37231 238-503 limits assumed): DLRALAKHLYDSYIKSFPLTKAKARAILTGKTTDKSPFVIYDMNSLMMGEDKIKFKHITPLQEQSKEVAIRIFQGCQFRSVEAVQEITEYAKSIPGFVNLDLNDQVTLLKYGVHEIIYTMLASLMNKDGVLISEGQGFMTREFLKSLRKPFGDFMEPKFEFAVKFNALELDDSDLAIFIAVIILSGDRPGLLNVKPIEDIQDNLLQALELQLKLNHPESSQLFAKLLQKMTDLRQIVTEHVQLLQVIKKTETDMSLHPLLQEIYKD

With `CCc1ccc(CCOc2ccc(CC3SC(=O)NC3=O)cc2)nc1` (stereo not shown) [Pioglitazone, reference compound] as the molecule, how does the IC50 [1] read?
Its IC50 is > 1000 µM.

What about the blood glucose levels ([2]; 36 mg/kg oral, 15 days, vs diabetic control rats) of the same molecule?
Its blood glucose levels is “significantly reduced”.

And the Hb levels ([2]; 36 mg/kg oral, 15 days, vs disease control (STZ + NA))?
The Hb levels was “significant increase”.

And the “histological changes of pancreas (islets, β-cells)” value ([2]; 36 mg/kg, light microscopy, hematoxylin-eosin)?
The value was “restored to near normal”.

Which IC50 [1] does the source give for `CN(CCOc1ccc(CC2SC(=O)NC2=O)cc1)c1ccccn1` (stereo not shown) [Rosiglitazone, reference compound] here?
The IC50 was 662 ± 18 µM.

Which EC50 (human PPARγ (hPPARγ)) does the source give for `CC(=O)NCCOC(=O)[C@H](Oc1cccc(C(F)(F)F)c1)c1ccc(Cl)cc1` [metaglidasen] here?
Its EC50 is ~10 µM.

What about the Emax (human PPARγ (hPPARγ)) of the same molecule?
Its Emax is “around 10%”.

From article PMC5663708, “Novel Benzylidene Thiazolidinedione Derivatives as Partial PPARγ Agonists and their Antidiabetic Effects on Type 2 Diabetes” (Scientific Reports, 2017)
